Data as given in US20230382858A1 (Beckley Psytech Limited, priority 2020, published 2023).

Experiments:
[1] = Dynamic Vapour Sorption (DVS); assay type: physicochemical
Description: Sorption isotherms were obtained using a Hiden Isochema moisture sorption analyser (IGAsorp Systems Firmware V20.19.005 COM3) and operated by Isochema Hlsorp 2019 V4.02.0102. The sample was maintained at a constant temperature (25° C.) by the instrument controls. The humidity was controlled by mixing streams of dry and wet nitrogen, with a total flow of 250 ml.min-1. The weight change of the sample was monitored as a function of humidity by a microbalance (accuracy +/− 0.001 mg).
A defined amount of sample was placed in a tared mesh stainless steel basket under ambient conditions. A typical experimental run consisted of three cycles (desorption, sorption, desorption, sorption, desorption and sorption) at a constant temperature (25° C.) and 10% RH intervals over a 0-90% RH range (60 minutes for each humidity level).
This is to obtain in-depth profiling of the material towards humidity at these elevated levels.

Sprague-Dawley rats = test: Maximum tolerated dose followed by 7-day repeat-dose toxicology in rats (Study 700040); assay type: in vivo; conditions: rat
Description: The study consisted of 2 parts. […] The doses used in part 1 were 15, 30, 50, 65, and 75 mg/kg. Each subsequent dose was administered following at least 24 hours from the commencement of the previous dose. There were 2 males and 2 females in each dose group.
During Phase I, assessments of mortality, clinical signs and body weights were performed. […] The necropsy consisted of an external examination, including reference to all clinically-recorded lesions, as well as a detailed internal examination.
During Phase 2, assessments of mortality, clinical signs and body weights were performed. Following dosing, all animals were euthanized and subjected to a necropsy examination on Day 8. The necropsy consisted of an external examination, including reference to all clinically-recorded lesions, as well as a detailed internal examination. Study plan specific tissues/organs were collected and retained, then trimmed and preserved promptly once the animal was euthanized but these were not further examined microscopically.

[2] = system: Salmonella typhimurium tester strains TA98, TA100, TA1535, and TA1537; test: Bacterial Reverse Mutation Test (Ames test), S. typhimurium; conditions: for cytotoxicity: 5000 μg/plate
[3] = system: Chinese hamster ovary (CHO)-K1 cells; test: In vitro micronucleus test (flow cytometry); assay type: cell-based
Excerpt: The treatment with the vehicle/negative and positive controls was concurrently performed.

hERG = hERG (Homo sapiens, UniProt Q12809); test: in vitro
Excerpt: This assay is employed as a screen to assess potential risks for QT interval prolongation.

[4] = intranasal 75 mg/kg for 7 consecutive days

Sequence of hERG (Q12809 whole entry): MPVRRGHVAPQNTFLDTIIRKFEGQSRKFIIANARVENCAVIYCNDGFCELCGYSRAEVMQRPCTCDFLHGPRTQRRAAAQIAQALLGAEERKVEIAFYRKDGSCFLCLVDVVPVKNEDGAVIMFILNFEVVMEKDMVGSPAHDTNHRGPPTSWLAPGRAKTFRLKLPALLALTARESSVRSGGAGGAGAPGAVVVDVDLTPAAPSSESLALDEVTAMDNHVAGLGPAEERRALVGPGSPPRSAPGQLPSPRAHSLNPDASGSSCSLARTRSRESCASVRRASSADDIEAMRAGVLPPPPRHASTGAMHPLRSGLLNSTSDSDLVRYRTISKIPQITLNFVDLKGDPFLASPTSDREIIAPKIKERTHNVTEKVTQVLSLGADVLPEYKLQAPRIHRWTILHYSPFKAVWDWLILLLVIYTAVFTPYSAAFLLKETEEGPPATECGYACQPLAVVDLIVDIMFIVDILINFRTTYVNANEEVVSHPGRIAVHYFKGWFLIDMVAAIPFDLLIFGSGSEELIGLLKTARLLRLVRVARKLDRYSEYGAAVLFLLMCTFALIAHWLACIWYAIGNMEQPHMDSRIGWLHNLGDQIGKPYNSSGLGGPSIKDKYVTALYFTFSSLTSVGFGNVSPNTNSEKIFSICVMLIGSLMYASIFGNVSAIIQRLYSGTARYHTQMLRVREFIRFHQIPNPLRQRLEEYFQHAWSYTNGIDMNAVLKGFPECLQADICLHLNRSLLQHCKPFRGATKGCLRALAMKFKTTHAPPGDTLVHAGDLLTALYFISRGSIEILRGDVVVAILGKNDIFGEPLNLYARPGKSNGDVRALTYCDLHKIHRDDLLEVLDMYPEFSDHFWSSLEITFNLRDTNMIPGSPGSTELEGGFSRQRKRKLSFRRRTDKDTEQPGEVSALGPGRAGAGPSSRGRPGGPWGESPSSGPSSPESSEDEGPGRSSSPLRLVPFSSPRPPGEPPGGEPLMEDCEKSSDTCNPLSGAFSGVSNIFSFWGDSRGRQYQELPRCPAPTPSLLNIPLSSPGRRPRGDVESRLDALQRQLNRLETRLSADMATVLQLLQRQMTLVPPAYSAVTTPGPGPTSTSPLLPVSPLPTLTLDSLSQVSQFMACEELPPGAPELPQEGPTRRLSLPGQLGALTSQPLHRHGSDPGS

SMILES: COc1ccc2[nH]cc(CCN(C)C)c2c1.Cl [5MeODMT Hydrochloride, lot 20/20/126-FP, 5MeODMT Hydrochloride]
- state of material upon completion of the DVS cycle ([1]; 0-90% RH cycles): completed deliquesced
- moisture uptake ([1]; 25° C., 0-70% RH): less than 0.3 % w/w
- moisture uptake ([1]; 25° C., first sorption cycle, 70-80% RH): Approximately 23 w/w
- mass above the minimum recorded at 0% RH after subsequent cycles (retention of moisture) ([1]; 25° C., subsequent sorption and desorption cycles): 6-9 % w/w
- further moisture uptake ([1]; 25° C., up to and when held at 90% RH): 20 % w/w

SMILES: COc1ccc2[nH]cc(CCN(C)C)c2c1.Cl [5MeODMT Hydrochloride, lot 20/45/006-FP, 5MeODMT Hydrochloride]
- moisture increase ([1]; 70-75% RH): ca. 0.46 % w/w
- further moisture uptake ([1]; 75-80% RH): ca. 7%
- further moisture uptake ([1]; 80-85%): ca. 40%
- stability towards humidity ([1]; DVS): robustness between 0-75% RH
- state of solids post DVS analysis ([1]; modified DVS up to 85% RH, likely occurred above 80% RH): Complete deliquescence

SMILES: COc1ccc2[nH]cc(CCN(C)C)c2c1 [5MeODMT, 5-methoxy-N,N-dimethyltryptamine]
- body weight gain (Sprague-Dawley rats; [4]): slightly suppressed for both sexes
- macroscopic observation: dark/pale area of the lungs (Sprague-Dawley rats; [4]): 2/10
- mortality (Sprague-Dawley rats; [4]): no mortalities
- tolerability (Sprague-Dawley rats; [4]): tolerated
- clinical signs (Sprague-Dawley rats; single intranasal 15-75 mg/kg): incoordination, shallow or increased respiration, sneezing, salivation, decreased activity, piloerection, white pasty material around penis (for males), ptosis, laying on the cage floor, and sensitive to touch and shaking
- mortality and gross pathology (Sprague-Dawley rats; single intranasal 15-75 mg/kg): no mortality and gross pathology findings at any dose
- time to resolution of most clinical signs post dose (Sprague-Dawley rats; single intranasal 15-75 mg/kg): ≤ 1 h
- tolerability (Sprague-Dawley rats; single intranasal, dose levels up to 75 mg/kg): tolerated
- body weight gain (Sprague-Dawley rats; single intranasal, females at 75 mg/kg): slightly suppressed
- cytotoxicity ([2]; absence of S9 mix): higher levels of cytotoxicity
- cytotoxicity ([2]; presence of S9 mix): remained slight
- revertant colonies in repeated test ([2]; TA1537 and TA98, absence of S9 mix, 15-2000 μg per plate): no increases in the revertant colonies number per plate
- mutagenic potential (conclusion) ([2]; all bacteria strains tested, absence or presence of S9): no mutagenic potential
- chromosome-damaging potential (conclusion) ([3]; CHO-K1 cells): no chromosome-damaging potential
- cytotoxicity or precipitation ([3]; up to 300 μg/mL, all treatment periods): No cytotoxicity or precipitation
- inhibition at 30 µM (hERG): 77.8 ± 7.4%
